Results on two compounds are retold here after publication PMC5269720, “Conformational Change of a Tryptophan Residue in BtuF Facilitates Binding and Transport of Cobinamide by the Vitamin B12 Transporter BtuCD-F” (Scientific Reports, 2017).

Read-outs that look alike come from different tables or passages of the source.

In experiment [1] the target is T1, BtuFfluo W66A (E.c. BtuF) (Escherichia coli, UniProt P37028, Q145C/W66A).
T1 construct: His6; made in house
In words: Fluorescence quenching substrate binding assay with BtuFfluo, W66A mutant. The note with it: BtuFfluo 5 nM, substrate 0.02 nM to 33 μM, 30 min at 10 °C, mean and S.E.M., n = 12. The protocol:
(§1) For binding assays BtuF was labeled at a cysteine residue in the backbone helix with fluorescein-5-maleimide (Thermo scientific 62245) as described previously. In brief, 50 to 100 μM BtuF Q145C (Invitrogen QuickChange) was labeled with a 10-fold molar excess of fluorescein-5-maleimide (BtuFfluo). The reaction was run over night at 4 °C in the presence of 1 mM TCEP to prevent oxidation and stopped with 5 mM β-mercaptoethanol. Excess label was removed by desalting with PD10 columns and the protein was further purified by size exclusion chromatography. Protein concentration was determined by Bradford assay using BSA for calibration and the labeling efficiency was determined by measuring the absorbance at 494 nm. The labeled protein was flash frozen in liquid nitrogen and stored at −80 °C until the day of use. Final storage buffer was 50 mM HEPES 7, 200 mM NaCl, 0.5 mM EDTA-NaOH 8 and 10% v/v Glycerol.
(§2) The assay is based on monitoring the ligand-induced change in emission of fluorescein attached to BtuF (BtuFfluo). A similar approach has been used to determine the affinity of MBP for maltose in the presence of various sAB[40][41][42]. BtuFfluo at 5 nM was incubated with a range of substrate concentrations from 0.02 nM to 33 μM. After incubation for 30 min at 10 °C the fluorescence intensity was recorded at an excitation wavelength of 485 nm and emission at 528 nm. The maximum signal was recorded in the absence of substrate and decreased with increasing substrate concentration. The difference of the maximum intensity minus the signal at a certain substrate concentration was plotted against the substrate concentration. One site –specific binding in Prism GraphPad was used to fit the data for KD determination (GraphPad Prism version 6.04 for Windows, GraphPad Software, La Jolla California USA, www.graphpad.com”). Binding buffer composition was 50 mM Tris 7.5 and 200 mM NaCl.

For experiment [2], the target named is T2, BtuFfluo W66F (E.c. BtuF) (Escherichia coli, UniProt P37028, Q145C/W66F).
T2 construct: His6; made in house
T2 sequence (P37028 23-266 W66F/Q145C): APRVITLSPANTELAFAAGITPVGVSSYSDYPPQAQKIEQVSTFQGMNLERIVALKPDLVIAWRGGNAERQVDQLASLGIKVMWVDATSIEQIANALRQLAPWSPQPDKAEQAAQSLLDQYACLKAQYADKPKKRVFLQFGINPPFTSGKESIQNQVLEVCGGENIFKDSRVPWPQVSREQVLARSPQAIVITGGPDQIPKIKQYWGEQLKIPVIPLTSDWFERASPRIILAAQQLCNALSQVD
In words: Fluorescence quenching substrate binding assay with BtuFfluo, W66F mutant. The note with it: BtuFfluo 5 nM, substrate 0.02 nM to 33 μM, 30 min at 10 °C, mean and S.E.M., n = 12. The protocol: as §1
The assay is based on monitoring the ligand-induced change in emission of fluorescein attached to BtuF (BtuFfluo). A similar approach has been used to determine the affinity of MBP for maltose in the presence of various sAB[40][41][42]. […] After incubation for 30 min at 10 °C the fluorescence intensity was recorded at an excitation wavelength of 485 nm and emission at 528 nm. The maximum signal was recorded in the absence of substrate and decreased with increasing substrate concentration. […]

Experiment [3] concerns the target T3, BtuFfluo W66L (E.c. BtuF) (Escherichia coli, UniProt P37028, Q145C/W66L).
T3 construct: His6; made in house
In words: Fluorescence quenching substrate binding assay with BtuFfluo, W66L mutant. The note with it: for Kd: BtuFfluo 5 nM, substrate 0.02 nM to 33 μM, 30 min at 10 °C, mean and S.E.M., n = 12. The protocol: as §1, §2

The target in experiment [4] is T4, BtuFfluo W66H (E.c. BtuF) (Escherichia coli, UniProt P37028, Q145C/W66H).
T4 construct: His6; made in house
T4 sequence (P37028 23-266 W66H/Q145C): as the sequence (P37028 23-266 W66F/Q145C) above, with F44H counted along it
The experiment can be described thus: Fluorescence quenching substrate binding assay with BtuFfluo, W66H mutant. The note with it: for Kd: BtuFfluo 5 nM, substrate 0.02 nM to 33 μM, 30 min at 10 °C, mean and S.E.M., n = 12. The protocol: as §1, §2

Experiment [5] deals with T5, BtuFfluo W66Y (E.c. BtuF) (Escherichia coli, UniProt P37028, Q145C/W66Y).
T5 construct: His6; made in house
T5 sequence (P37028 23-266 W66Y/Q145C): as the sequence (P37028 23-266 W66F/Q145C) above, with F44Y counted along it
In words: Fluorescence quenching substrate binding assay with BtuFfluo, W66Y mutant. The note with it: for Kd: BtuFfluo 5 nM, substrate 0.02 nM to 33 μM, 30 min at 10 °C, mean and S.E.M., n = 12. The protocol:
as §1, §2

In experiment [6] the target is T6, wild type BtuFfluo (E.c. BtuF) (Escherichia coli, UniProt P37028, Q145C).
T6 construct: His6; made in house
T6 sequence (P37028 23-266 Q145C): as the sequence (P37028 23-266 W66F/Q145C) above, with F44W counted along it
The experiment can be described thus: Fluorescence quenching substrate binding assay with BtuFfluo, wild type. The note with it: BtuFfluo 5 nM, substrate 0.02 nM to 33 μM, 30 min at 10 °C, mean and S.E.M., n = 12. The procedure: as §1, §2

Experiment [7] concerns the target T7, BtuFfluo W66E (E.c. BtuF) (Escherichia coli, UniProt P37028, Q145C/W66E).
T7 construct: His6; made in house
In words: Fluorescence quenching substrate binding assay with BtuFfluo, W66E mutant. The protocol:
as §1, §2

For experiment [8], the system named is wild type BtuCD with BtuF W66 mutants (W66A, W66R, W66E, W66F). The experiment can be described thus: In vitro substrate transport assay with liposome reconstituted wild type BtuCD and BtuF W66 mutants. The note with it: 4 mg/ml proteoliposomes (~0.5 μM total BtuCD), 1 μM BtuF, 2 mM ATP, 15 μM cobinamide or cyanocobalamin. It counts as biochemical, Escherichia coli. The protocol: (§3) BtuCD was expressed, purified and reconstituted as described previously with some modifications regarding buffer composition and reconstitution procedure. In brief, BtuCD with an N-terminal His10-tag on BtuC was purified by IMAC and desalted into a buffer of the following composition: 50 mM Tris 7.5, 500 mm NaCl, 0.5 mM EDTA-NaOH 8 and 0.1% w/v LDAO. Purified protein was used directly for reconstitution into liposomes consisting of E. coli Polar lipids and α-Phosphatidylcholine (3:1 weight ratio, Avanti Polar Lipids 100600 C and 840051 C). Liposomes were destabilized with 0.3% w/v Triton X-100 for 20 min at RT. Protein was added with a ratio of 50:1 LPR and incubated for 90 min at RT. Detergent was removed by BioBeads (40 mg/ml mixture) in 4 steps and proteoliposomes were stored at −80 °C until the day of experiment. The protein concentration within the liposomes was determined by Amido black protein assay using BSA for the calibration curve.
The amount of right-side-in oriented BtuCD in liposomes was determined as described previously for ABC type II importer HmuUV with minor modifications. Briefly, liposome-reconstituted BtuCD was incubated with 1 μM fluorescently labeled BtuF (BtuFfluo) for 30 min at RT followed by a spin to remove excess BtuFfluo. The pellet was washed and resuspended at 1.25 mg/ml liposome concentration. The amount of BtuFfluo associated with the liposomes was determined by measuring the fluorescence signal at an excitation wavelength of 485 nm and an emission wavelength of 516 nm. Unspecific BtuFfluo interaction with liposomes was measured using empty liposomes.
For the substrate transport assays radiolabeled ^14C-cyano-aquo-cobinamide (^14CN-Cbi, labeled in house) or ^57Co-cyanocobalamin (^57Co-Cbl, MP Biomedicals 06B-430000, 10.5 uCi) was used. […] The radioactivity trapped on the filters was measured either by a β counter using LCS in case of ^14CN-Cbi or a γ counter in case of ^57Co-Cbl. Initial transport rates were determined by using linear regression in PrismGraphpad.

For experiment [9], the target named is T8, BtuFfluo W66R (E.c. BtuF) (Escherichia coli, UniProt P37028, Q145C/W66R).
T8 construct: His6; made in house
T8 sequence (P37028 23-266 W66R/Q145C): as the sequence (P37028 23-266 W66F/Q145C) above, with F44R counted along it
In words: Fluorescence quenching substrate binding assay with BtuFfluo, W66R mutant. The note with it: for Kd: BtuFfluo 5 nM, substrate 0.02 nM to 33 μM, 30 min at 10 °C, mean and S.E.M., n = 9; for decrease in affinity compared to wt: W66R (arginine) versus wild type BtuF. The procedure:
as §1, §2

Another experiment addresses T9, wild type BtuCD-F (Escherichia coli, UniProt P06609+P37028).
T9 construct: His10 (N); made in house
The experiment can be described thus: In vitro substrate transport assay with liposome reconstituted BtuCD and wild type BtuF. It counts as biochemical. The protocol:
as §3
The amount of right-side-in oriented BtuCD in liposomes was determined as described previously for ABC type II importer HmuUV with minor modifications. […] The amount of BtuFfluo associated with the liposomes was determined by measuring the fluorescence signal at an excitation wavelength of 485 nm and an emission wavelength of 516 nm. Unspecific BtuFfluo interaction with liposomes was measured using empty liposomes. […]

T3 sequence (P37028 23-266 W66L/Q145C): as the sequence (P37028 23-266 W66F/Q145C) above, with F44L counted along it
T7 sequence (P37028 23-266 W66E/Q145C): as the sequence (P37028 23-266 W66F/Q145C) above, with F44E counted along it
T1 sequence (P37028 23-266 W66A/Q145C): as the sequence (P37028 23-266 W66F/Q145C) above, with F44A counted along it
T9 sequence (P06609 whole entry): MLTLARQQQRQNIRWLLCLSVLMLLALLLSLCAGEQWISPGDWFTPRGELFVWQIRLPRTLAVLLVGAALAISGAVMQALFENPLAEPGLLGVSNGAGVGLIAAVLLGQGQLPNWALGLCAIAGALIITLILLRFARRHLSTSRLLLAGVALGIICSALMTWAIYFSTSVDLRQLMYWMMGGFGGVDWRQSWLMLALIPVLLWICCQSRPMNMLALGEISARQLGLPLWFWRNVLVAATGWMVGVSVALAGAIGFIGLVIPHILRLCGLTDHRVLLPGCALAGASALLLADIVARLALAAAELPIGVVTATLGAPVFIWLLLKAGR
T9 sequence (P37028 23-266): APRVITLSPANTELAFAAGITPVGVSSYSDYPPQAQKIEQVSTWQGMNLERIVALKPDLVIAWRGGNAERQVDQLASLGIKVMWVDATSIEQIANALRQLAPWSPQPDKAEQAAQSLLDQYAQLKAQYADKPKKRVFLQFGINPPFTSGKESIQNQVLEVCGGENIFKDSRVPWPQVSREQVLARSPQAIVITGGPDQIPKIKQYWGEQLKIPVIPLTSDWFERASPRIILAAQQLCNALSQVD
T9 sequence (P06611 whole entry, further chain): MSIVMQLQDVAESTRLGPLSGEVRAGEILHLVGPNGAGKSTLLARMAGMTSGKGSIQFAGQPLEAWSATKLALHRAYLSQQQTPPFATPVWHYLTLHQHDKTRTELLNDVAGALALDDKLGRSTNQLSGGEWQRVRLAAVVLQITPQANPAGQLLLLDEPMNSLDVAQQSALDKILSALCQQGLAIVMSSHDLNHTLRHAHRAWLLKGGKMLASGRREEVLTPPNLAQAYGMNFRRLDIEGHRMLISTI

The term Kd denotes the concentration at which binding is half-saturated. As for cyanocobalamin [Cbl], the Kd in experiment [1] (CN-Cbl, read-out: KD of Cbl) worked out at 14 ± 4 nM; in experiment [2] (CN-Cbl, read-out: KD of Cbl), 8 ± 1.9 nM; in experiment [3] (CN-Cbl, read-out: KD of Cbl), 15 ± 2 nM; in experiment [4] (CN-Cbl, read-out: KD of Cbl) it was 5.5 ± 1.7 nM; in experiment [5] (CN-Cbl, read-out: KD of Cbl), 5.7 ± 1.7 nM; in [6] (CN-Cbl, read-out: KD of Cbl), 9.1 ± 2.6 nM. The Kd in experiment [7] (CN-Cbl, BtuFfluo 5 nM, substrate 0.02 nM to 33 μM, 30 min at 10 °C, mean and S.E.M., n = 12, read-out: KD of Cbl) turned out to be 57 ± 15 nM; in [9] (CN-Cbl, read-out: KD of Cbl) it was 68 ± 13 nM. For the same compound, in experiment [6] (CN-Cbl), the “KD of Cbl” value is “low nM range”. The “decrease in affinity compared to wt” value in [7] (W66E (glutamate) versus wild type BtuF) and in experiment [9] was ~ 7 fold in each case. Also, the “effect of BtuF W66X substitution on in vitro transport rate” value in experiment [8] was “not influenced”.

With `C/C1=C2/[N-][C@H]([C@H](CC(N)=O)[C@@]2(C)CCC(=O)NC[C@@H](C)O)[C@]2(C)N=C(/C(C)=C3N=C(/C=C4N=C1[C@@H](CCC(N)=O)C\4(C)C)[C@@H](CCC(N)=O)[C@]\3(C)CC(N)=O)[C@@H](CCC(N)=O)[C@]2(C)CC(N)=O.[Co+3]` [Cbi, cobinamide], the “KD of Cbi” value was “low micromolar range” in [1] (di-CN-Cbi); “low micromolar range” in [7] (di-CN-Cbi, BtuFfluo 5 nM, substrate 0.02 nM to 33 μM, 30 min at 10 °C, mean and S.E.M., n = 12). Further, the Kd in experiment [1] (di-CN-Cbi, read-out: KD of Cbi) came to 1800 ± 800 nM; in [2] (di-CN-Cbi, read-out: KD of Cbi), 30 ± 7 nM; in experiment [3] (di-CN-Cbi, read-out: KD of Cbi) it was 120 ± 20 nM; in experiment [4] (di-CN-Cbi, read-out: KD of Cbi), 500 ± 100 nM; in experiment [5] (di-CN-Cbi, read-out: KD of Cbi), 150 ± 30 nM; in [6] (di-CN-Cbi, read-out: KD of Cbi), 40 ± 10 nM. For the same compound, the Kd stood at 2900 ± 800 nM in experiment [7] (di-CN-Cbi, BtuFfluo 5 nM, substrate 0.02 nM to 33 μM, 30 min at 10 °C, mean and S.E.M., n = 12, read-out: KD of Cbi); 800 ± 200 nM in [9] (di-CN-Cbi, read-out: KD of Cbi). Also, the “reduced affinity compared to wt” value is recorded as 3 fold in experiment [3] (W66L (leucine) versus wild type BtuF), “more than 10 fold” in experiment [4] (W66H (histidine) versus wild type BtuF) and 3 fold in experiment [5] (W66Y (tyrosine) versus wild type BtuF). For the same compound, the figures for the “effect of BtuF W66X substitution on in vitro transport rate” value in experiment [8] and in experiment [8] (listed as cobinamide) were “hardly affected” and “not influenced”, respectively. On wild type BtuCD-F (14CN-Cbi, 4 mg/ml proteoliposomes (~0.5 μM total BtuCD), 1 μM BtuF, 15 μM cobinamide, 2 mM ATP, 22 °C, corrected for right-side-in oriented transporters, mean ± S.E.M., n = 6), the initial transport rate is 0.7 ± 0.2 nmol Cbi/mg protein/min. Besides, the “in vitro turnover number for Cbi transport, slower than that of Cbl transport” value on wild type BtuCD-F (calculated, Cbi versus Cbl transport by wild type BtuCD-F) is reported as “approximately 1.5 fold”. Moreover, in experiment [9], the “decrease in affinity compared to wt” value is “more than 10 fold”.
